Data as given in US11884710B2, “Peptide compounds and methods of use in wound healing” (priority 2013, dated 2024).

Assays:
[1] = test system: full thickness excisional wounds; experiment: Histopathology of swine dermal wounds; assay type: in vivo; parameters: Inflammation, mean histopathology score / Angiogenesis, mean histopathology score / Granulation, mean histopathology score / Epithelization, mean histopathology score: scale not given here; conditions: for epidermal resurfacing and maturation vs saline control, in words: day 14 post-wounding; for Angiogenesis, mean histopathology score / Epithelization, mean histopathology score / Granulation, mean histopathology score / Inflammation, mean histopathology score: wounds harvested on day 14, 3 mg/ml
Procedure: The characteristics that were measured are required to indicate features of a well-healed wound. Inflammation should be low and re-epithelialization high.
(§1) Full thickness excisional wounds were induced on the dorsum of swine (N=3) using a 1.0 cm biopsy punch. Treatments were administered (0.20 ml) to each wound (N=6 wounds per group), and the wounds were dressed with standard occlusive dressing ([…]™, 3M Corporation, St. Paul, Minn.). Treatments were reapplied daily and dressings changed. Clinical wound healing observations and wound area (2 mm) measurements were performed on days 0, 3, 5, 7, 10, and 14 post-wounding. Wound area (2 mm) data were expressed as percentage (%) of wound healing. Animals were terminated on day 14 with wounds harvested and processed for histological evaluation. […] All peptide formulation treatment groups healed faster with greater rate of closure and re-epithelialization over time, as compared to the saline control (Group A).
The histology correlated with the clinical observations. […] There were minimal differences in the amount or character of granulation tissue, inflammation, and angiogenesis. All the wounds were well filled and vascularized.

[2] = test system: full thickness excisional wounds; experiment: Swine full thickness excisional dermal wound model; assay type: in vivo; conditions: for Mean Wound Healing (%): topical 3 mg/ml, 0.20 ml daily; for percentage of wound healing vs saline control, in words: 3 mg/ml
Procedure: In this Example, peptide compounds of the presently disclosed inventive concepts were evaluated as to their activity on the dermal wound healing process in a clinically relevant swine full thickness excisional wound model. Three different peptide formulations (Group B, Peptide 95-122 (SEQ ID NO:26); Group C, Peptide 120-146WH (SEQ ID NO:31); and Group D, Peptide 120-146QH-5RMP (SEQ ID NO:33)) were each evaluated at the same concentration (3 mg/ml). Sterile saline served as the control (Group A).
as §1

[3] = test system: Pseudomonas aeruginosa ATCC 27853; experiment: In vitro bactericidal assay, P. aeruginosa ATCC 27853 (FIGS. 12-14); assay type: cell-based; conditions: for activity in in vitro killing assays, in words / reduction of the CFU: FIG. 14; for reduction of the CFU: peptides at 150, 75, 37.5 μg/ml; for reduction of CFU/ml: highest peptide concentration
Procedure: (§2) Each of the test peptides was used at 25, 12.5 6.25, and 3.12 μM. The gentamicin was used at 4 μg/ml. 1×10^6/ml Pseudomonas aeruginosa ATCC® 27853™ (American Type Culture Collection, Manassas, Va.) were incubated with the peptides, negative buffer control (tryptone saline), and positive control gentamicin for 180 minutes at pH 7.2. 50 μl aliquots were plated out on agar plates and incubated overnight. Colony forming units were counted after overnight incubation and CFU/ml calculated.
as §2, with “12.5,” for “12.5”, “5.5.” for “7.2.”
FIG. 14 is a comparison of bactericidal activity of CAP37 peptides 120-146WR (SEQ ID NO:30), 120-146WH (SEQ ID NO:31), 120-146QR (SEQ ID NO:28), 120-146QH (SEQ ID NO:29), 120-146QR-5RMP (SEQ ID NO:32), and 120-146QH-5RMP (SEQ ID NO:33) for Pseudomonas aeruginosa ATCC® 27853™ (American Type Culture Collection, Manassas, Va.). 1×10^6/ml Pseudomonas aeruginosa ATCC® 27853™ were incubated with the peptides at 150, 75, and 37.5 μg/ml and negative buffer control (tryptone saline) for 180 minutes at pH 5.5. 50 μl aliquots were plated out on agar plates and incubated overnight. Colony forming units were counted after overnight incubation and CFU/ml calculated.
For FIGS. 10-13, in vitro bactericidal assays were performed using a starting inoculum of 1×10^6 CFU/ml of the bacterial suspension. The CFU remaining at the end of the 60-180 minute incubation was determined, and the data was plotted as log reduction in CFU/ml.
In particular, each of the test peptides (CAP37 peptides 120-146WR, 120-146WH, and 95-122 (SEQ ID NOS:30, 31, and 26, respectively)) was used at 25, 12.5, 6.25, and 3.12 μM. Gentamicin was used at 4 μg/ml. 1×10^6/ml Acinetobacter baumannii ATCC® BAA-747™ or Pseudomonas aeruginosa ATCC® 27853™ (American Type Culture Collection, Manassas, Va.) were incubated with the peptides, negative buffer control (tryptone saline), and positive control gentamicin at pH 5.5 or 7.2. A 60 minute incubation was used for Acinetobacter baumannii ATCC® BAA-747™, while a 180 minute incubation was used for Pseudomonas aeruginosa ATCC® 27853™. 50 μl aliquots were plated out on agar plates and incubated overnight. Colony forming units were counted after overnight incubation and CFU/ml calculated.
For FIG. 14, 1×10^6/ml Pseudomonas aeruginosa ATCC® 27853™ were incubated with each of the test peptides (CAP37 peptides 120-146WR, 120-146WH, 120-146QR, 120-146QH, 120-146QR-5RMP, and 120-146QH-5RMP (SEQ ID NOS:30, 31, 28, 29, 32, and 33, respectively)) at 150, 75, and 37.5 μg/ml, or negative buffer control (tryptone saline), for 180 minutes at pH 5.5. 50 μl aliquots were plated out on agar plates and incubated overnight. Colony forming units were counted after overnight incubation and CFU/ml calculated.

[4] = pH 7.2, 180 minutes, 120-146WR/WH at 25 μM, 95-122 at 3.12-25 μM

Sequence	epidermal resurfacing and maturation vs saline control, in words [1]	Angiogenesis, mean histopathology score [1]	Epithelization, mean histopathology score [1]	Granulation, mean histopathology score [1]	Inflammation, mean histopathology score [1]	Mean Wound Healing (%) ([2]; Day 0)	Mean Wound Healing (%) ([2]; Day 3)	Mean Wound Healing (%) ([2]; Day 5)	Mean Wound Healing (%) ([2]; Day 7)	Mean Wound Healing (%) ([2]; Day 10)	Mean Wound Healing (%) ([2]; Day 14)	percentage of wound healing vs saline control, in words ([2]; days 5, 7, 10, and 14)	bactericidal activity, in words ([3]; pH 5.5, 180 minutes, peptides 3.12-25 μM, gentamicin 4 μg/ml)	bactericidal activity, in words [3, 4]	percentage of wound healing vs saline control, in words ([2]; days 10 and 14 post-wounding)	activity in in vitro killing assays, in words ([3]; pH 5.5, 180 minutes)	reduction of the CFU ([3]; pH 5.5, 180 minutes)	reduction of CFU/ml ([3]; pH 7.2, 180 minutes)	bactericidal activity, in words ([3]; 120-146WR at 25 μM, gentamicin 4 μg/ml)
LDREANLTSSVTILPLPLQNATVEAGTR (listed as Homo sapiens) [Peptide 95-122]	greater extent of epidermal resurfacing and maturation of the epidermis	2.3	4.0	4.0	0.5	0.0%	28.9%	41.5%	70.8%	99.7%	100.0%	significant (p<0.05) increase in the percentage of wound healing	not active	not active					
GTRCQVAGWGSWHSGGRLSRFPRFVNV (derivative of peptide of CAP37 protein) [Peptide 120-146WH]	greater extent of epidermal resurfacing and maturation of the epidermis	1.7	3.7	4.0	0.5	0.0%	22.1%	35.9%	59.7%	93.5%	97.5%			as effective as the standard antibiotic gentamicin	significant (p<0.05) increase in the percentage of wound healing	strongly active	6 logs	6 logs	
GTRCQVAGWGSWRSGGRLSRFPRFVNV (derivative of peptide of Homo sapiens CAP37 protein) [Peptide 120-146WR]														as effective as the standard antibiotic gentamicin		strongly active	6 logs	6 logs	highly active
